{"source": "patent US20210378993A1", "about": "(Nacuity Pharmaceuticals, Inc., priority 2020, published 2021)", "key": {"[1]": {"tested_on": "rabbit eyes", "assay": "Ophthalmic tolerability, daily Draize scores after topical ocular administration", "type": "in vivo", "conditions": "rabbits", "method": "To simulate topical ocular exposure to an ophthalmic insert containing AGENT, prototype ophthalmic formulations were prepared containing either 1% NPI-001, 1% diNACA, 1% NAC or vehicle and tested to evaluate ocular tolerability. Three rabbits per group were administered 1% NPI-001, 1% di-NAC, 1% NAC in a prototype vehicle, via bilateral topical administration four times a day for 6 days, and once on Day 7."}, "[2]": {"conditions": "humans, oral dose of 600 mg; cited from earlier work"}, "[3]": {"conditions": "1% in prototype vehicle, bilateral topical four times a day, Day 1, per animal and eye"}, "[4]": {"conditions": "1% in prototype vehicle, bilateral topical four times a day, Day 2, per animal and eye"}, "[5]": {"conditions": "1% in prototype vehicle, bilateral topical four times a day, Day 3, per animal and eye"}, "[6]": {"conditions": "1% in prototype vehicle, bilateral topical four times a day, Day 4, per animal and eye"}, "[7]": {"conditions": "1% in prototype vehicle, bilateral topical four times a day, Day 5, per animal and eye"}, "[8]": {"conditions": "1% in prototype vehicle, bilateral topical four times a day, Day 6, per animal and eye"}, "[9]": {"conditions": "1% in prototype vehicle, bilateral topical, once on Day 7, Day 7, per animal and eye"}, "[10]": {"conditions": "1% in prototype vehicle, bilateral topical, (baseline), per animal and eye"}}, "note": "“And” between values parts separate entries of the source, which are not always exact repeats. Equal entries are not always repeated."}
{"smiles": "CC(=O)NC(CS)C(=O)O", "note": "(centres unmarked) [NAC, N-acetylcysteine, reference compound]", "values": [{"measurement": "Daily Draize Scores for Chemosis, Day 1", "setting": "[1]; [3]", "result": 0}, {"measurement": "Daily Draize Scores for Discharge, Day 1", "setting": "[1]; [3]", "result": 0}, {"measurement": "Daily Draize Scores for Hyperemia, Day 1", "setting": "[1]; [3]", "result": 0}, {"measurement": "Daily Draize Scores for Chemosis, Day 2", "setting": "[1]; [4]", "result": 0}, {"measurement": "Daily Draize Scores for Discharge, Day 2", "setting": "[1]; [4]", "result": "0 (4×) and 0.5 (2×)"}, {"measurement": "Daily Draize Scores for Hyperemia, Day 2", "setting": "[1]; [4]", "result": "0 (4×) and 0.5 (2×)"}, {"measurement": "Daily Draize Scores for Chemosis, Day 3", "setting": "[1]; [5]", "result": 0}, {"measurement": "Daily Draize Scores for Discharge, Day 3", "setting": "[1]; [5]", "result": 0}, {"measurement": "Daily Draize Scores for Hyperemia, Day 3", "setting": "[1]; [5]", "result": "0 (3×) and 0.5 (3×)"}, {"measurement": "Daily Draize Scores for Chemosis, Day 4", "setting": "[1]; [6]", "result": 0}, {"measurement": "Daily Draize Scores for Discharge, Day 4", "setting": "[1]; [6]", "result": "0 (4×) and 1 and 0.5"}, {"measurement": "Daily Draize Scores for Hyperemia, Day 4", "setting": "[1]; [6]", "result": 0}, {"measurement": "Daily Draize Scores for Chemosis, Day 5", "setting": "[1]; [7]", "result": 0}, {"measurement": "Daily Draize Scores for Discharge, Day 5", "setting": "[1]; [7]", "result": "0.5 and 0 (5×)"}, {"measurement": "Daily Draize Scores for Hyperemia, Day 5", "setting": "[1]; [7]", "result": 0}, {"measurement": "Daily Draize Scores for Chemosis, Day 6", "setting": "[1]; [8]", "result": 0}, {"measurement": "Daily Draize Scores for Discharge, Day 6", "setting": "[1]; [8]", "result": "0 (3×) and 1 (3×)"}, {"measurement": "Daily Draize Scores for Hyperemia, Day 6", "setting": "[1]; [8]", "result": 0}, {"measurement": "Daily Draize Scores for Chemosis, Day 7", "setting": "[1]; [9]", "result": 0}, {"measurement": "Daily Draize Scores for Discharge, Day 7", "setting": "[1]; [9]", "result": "0.5 (4×) and 1 and 0"}, {"measurement": "Daily Draize Scores for Hyperemia, Day 7", "setting": "[1]; [9]", "result": "1 (3×) and 0.5 (3×)"}, {"measurement": "Daily Draize Scores for Chemosis, Day B", "setting": "[1]; [10]", "result": 0}, {"measurement": "Daily Draize Scores for Discharge, Day B", "setting": "[1]; [10]", "result": 0}, {"measurement": "Daily Draize Scores for Hyperemia, Day B", "setting": "[1]; [10]", "result": 0}, {"measurement": "ocular hyperemia, observation over the study", "setting": "[1]; 1%, four times a day for 6 days, once on Day 7", "result": "mild hyperemia was observed at low frequencies"}, {"measurement": "time after administration at which no NAC is detectable", "setting": "[2]", "result": "10 to 12", "unit": "h"}]}
